# Values of other authors in patent US7364752B1, “Solid dispersion pharamaceutical formulations” (Abbott Laboratories, priority 1999, dated 2008).
# Settings: PEG solid dispersion formulation
structure (smiles),measurement,value
O=C1N(Cc2ccc(CO)cc2)[C@H](Cc2ccccc2)[C@H](O)[C@@H](O)[C@@H](Cc2ccccc2)N1Cc1ccc(CO)cc1 [DMP 323],bioavailability,unable to improve the bioavailability
